Measured values reported in patent US20220056019A1, “FARNESOID X RECEPTOR AGONISTS AND USES THEREOF” (Metacrine, Inc., priority 2018, published 2022).

Target: T1, hFXR (Homo sapiens, UniProt Q96RI1)
T1 construct: expressed in transfected cells; host or cells: CV-1 cells
T1 sequence (Q96RI1 1-486): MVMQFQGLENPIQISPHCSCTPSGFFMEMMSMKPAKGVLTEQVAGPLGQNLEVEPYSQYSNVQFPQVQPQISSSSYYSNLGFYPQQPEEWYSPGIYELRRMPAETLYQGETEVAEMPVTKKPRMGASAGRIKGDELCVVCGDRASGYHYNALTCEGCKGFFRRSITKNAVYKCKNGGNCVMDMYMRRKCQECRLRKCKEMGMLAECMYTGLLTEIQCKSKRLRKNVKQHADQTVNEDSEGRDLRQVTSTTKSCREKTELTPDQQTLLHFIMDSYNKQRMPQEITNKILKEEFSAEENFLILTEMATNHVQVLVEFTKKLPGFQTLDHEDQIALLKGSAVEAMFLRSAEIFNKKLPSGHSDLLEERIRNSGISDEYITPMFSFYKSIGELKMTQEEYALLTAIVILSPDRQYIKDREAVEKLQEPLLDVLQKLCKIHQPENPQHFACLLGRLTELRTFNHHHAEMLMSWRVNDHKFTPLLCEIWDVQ
T1 sequence (P19793 1-462 partner): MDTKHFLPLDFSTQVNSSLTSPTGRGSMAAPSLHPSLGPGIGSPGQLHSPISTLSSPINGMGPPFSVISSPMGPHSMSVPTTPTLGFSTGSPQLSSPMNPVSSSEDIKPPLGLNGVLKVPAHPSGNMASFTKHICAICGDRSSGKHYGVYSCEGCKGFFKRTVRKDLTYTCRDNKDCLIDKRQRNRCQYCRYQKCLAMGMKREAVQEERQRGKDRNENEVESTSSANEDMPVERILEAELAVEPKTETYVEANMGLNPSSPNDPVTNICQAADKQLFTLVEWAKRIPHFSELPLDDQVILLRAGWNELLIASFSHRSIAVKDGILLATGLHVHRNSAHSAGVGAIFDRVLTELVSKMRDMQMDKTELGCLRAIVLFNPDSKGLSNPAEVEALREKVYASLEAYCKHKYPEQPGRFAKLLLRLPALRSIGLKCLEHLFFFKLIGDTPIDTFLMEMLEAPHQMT
Test: In Vitro FXR Assay (TK): TK-ECRE-luc reporter in transfected CV-1 cells
Assay type: cell-based
Settings: 18 hrs incubation, luminescence
Procedure, shortened: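 CV-1 cells in DMEM with 10% charcoal-stripped FBS were transiently co-transfected with hFXR, hRXR, TK-ECRE-luc reporter and pCMX-YFP plasmids over 18 h at 37 °C. Compounds serially diluted in DMSO were added for 18 h; cells were then lysed and luciferase luminescence measured.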

EC50, ≤ 50 nM:
COc1ccc(C23CCC(CN(c4nccc(-c5cnn(C6(C)CCC6)c5)n4)C(=O)[C@H]4CC[C@H](OC(=O)N5CC(O)C5)CC4)(CC2)CC3)cc1C [Compound 25.25, 4-(((4-(4-Methoxy-3-methylphenyl)bicyclo[2.2.2]octan-1-yl)methyl)(4-(1-(1-methylcyclobutyl)-1H-pyrazol-4-yl)pyrimidin-2-yl)carbamoyl)cyclohexyl trans-3-hydroxyazetidine-1-carboxylate]
COC(=O)N[C@H]1CC[C@H](C(=O)N(CC23CCC(c4ccc(OC)c(C)c4)(CC2)CC3)c2cc(-c3cnn(C(C)C)c3)ccn2)CC1 [Compound 8, Methyl trans-(4-((4-(1-isopropyl-1H-pyrazol-4-yl)pyridin-2-yl)((4-(4-methoxy-3-methylphenyl)bicyclo[2.2.2]octan-1-yl)methyl)carbamoyl)cyclohexyl)carbamate]
COCC(=O)N[C@H]1CC[C@H](C(=O)N(CC23CCC(c4ccc(OC)c(C)c4)(CC2)CC3)c2cc(-c3cnc(C4CC4)s3)ccn2)CC1 [Compound 9.07, (trans)-N-(4-(2-Cyclopropylthiazol-5-yl)pyridin-2-yl)-N-((4-(4-methoxy-3-methylphenyl)bicyclo[2.2.2]octan-1-yl)methyl)-4-(2-methoxyacetamido)cyclohexanecar-boxamide]
COc1ccc([C@H]2CC[C@H](CN(c3cccc(-c4cnn(C(C)C)c4)c3)C(=O)[C@H]3CC[C@H](OCCCO)CC3)CC2)cc1C [Compound 16, trans-4-(3-Hydroxypropoxy)-N-(3-(1-isopropyl-1H-pyrazol-4-yl)phenyl)-N-((trans-4-(4-methoxy-3-methylphenyl)cyclohexyl)methyl)cyclohexanecarboxamide]
COc1ccc([C@H]2CC[C@H](CN(c3cccc(-c4coc(C5CC5)n4)c3)C(=O)[C@H]3CC[C@H](CO)CC3)CC2)nc1C [Compound 20, trans-N-(3-(2-Cyclopropyloxazol-4-yl)phenyl)-4-(hydroxymethyl)-N-((trans-4-(5-methoxy-6-methylpyridin-2-yl)cyclohexyl)methyl)cyclohexanecar-boxamide]
COc1ccc([C@H]2CC[C@H](CN(c3cc(-c4coc(C5CC5)n4)ccn3)C(=O)[C@H]3CC[C@H](OC(=O)NC(C)C)CC3)CC2)cc1C [Compound 2.46, trans-4-((4-(2-Cyclopropyloxazol-4-yl)pyridin-2-yl)((trans-4-(4-methoxy-3-methylphenyl)cyclohexyl)methyl)carbamoyl)cyclohexyl isopropylcarbamate]
COc1ccc([C@H]2CC[C@H](CN(c3cc(-c4cnn(C(C)C)c4)ccn3)C(=O)[C@H]3CC[C@H](OC(=O)NCCC(C)(C)O)CC3)CC2)cc1C [Compound 2.21, trans-4-((4-(1-Isopropyl-1H-pyrazol-4-yl)pyridin-2-yl) ((trans-4-(4-methoxy-3-methylphenyl)cyclohexyl)methyl)carbamoyl) cyclohexyl(3-hydroxy-3-methylbutyl)carbamate]

EC50, 1000 to 10000 nM:
COc1ccc(C23CCC(CN(c4cc(-c5cnn(C6CC[S+]([O-])CC6)c5)ccn4)C(=O)[C@H]4CC[C@H](OC(=O)N5CC(O)C5)CC4)(CC2)CC3)cc1C (stereo partly drawn) [Compound 26.22, 4-(((4-(4-Methoxy-3-methylphenyl)bicyclo[2.2.2]octan-1-yl)methyl)(4-(1-(1-oxidotetrahydro-2H-thiopyran-4-yl)-1H-pyrazol-4-yl)pyridin-2-yl)carbamoyl)cyclohexyl trans-3-hydroxyazetidine-1-carboxylate]
COc1ccc([C@H]2CC[C@H](CN(c3cccc(-c4cnn(C(C)C)c4)c3)C(=O)[C@H]3CC[C@H](CN)CC3)CC2)cc1C [Compound 11, (trans)-4-(Aminomethyl)-N-(3-(1-isopropyl-1H-pyrazol-4-yl)phenyl)-N-(((trans)-4-(4-methoxy-3-methylphenyl)cyclohexyl)methyl)cyclohexanecarboxamide]
